Data published in patent US8618154B2, “LXR modulators” (Bristol-Myers Squibb Company, priority 2009, dated 2013).
Read-outs that look alike come from different tables or passages of the source.

Target: T1, LXRα (Homo sapiens, UniProt Q13133)
T1 construct: Co-transfection expression plasmids, comprising full-length LXRα (pCMX-h LXRα); expressed in transfected cells; host or cells: CV-1 African green monkey kidney cells, transient transfection with FuGENE6
T1 sequence (Q13133 1-447): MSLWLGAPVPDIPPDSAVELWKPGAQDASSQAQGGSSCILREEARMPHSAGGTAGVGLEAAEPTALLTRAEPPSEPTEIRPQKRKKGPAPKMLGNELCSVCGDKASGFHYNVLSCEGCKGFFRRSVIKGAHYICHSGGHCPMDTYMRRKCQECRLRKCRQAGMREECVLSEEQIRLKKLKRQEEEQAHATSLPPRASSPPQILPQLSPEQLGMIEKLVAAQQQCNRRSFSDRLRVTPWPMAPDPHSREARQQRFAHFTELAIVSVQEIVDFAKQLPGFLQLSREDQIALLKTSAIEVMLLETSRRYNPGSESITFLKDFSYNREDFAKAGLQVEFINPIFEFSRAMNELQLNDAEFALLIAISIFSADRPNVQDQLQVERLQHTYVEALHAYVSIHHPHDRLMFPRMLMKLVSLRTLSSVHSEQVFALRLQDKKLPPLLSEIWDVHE
T1 sequence (P19793 1-462 partner): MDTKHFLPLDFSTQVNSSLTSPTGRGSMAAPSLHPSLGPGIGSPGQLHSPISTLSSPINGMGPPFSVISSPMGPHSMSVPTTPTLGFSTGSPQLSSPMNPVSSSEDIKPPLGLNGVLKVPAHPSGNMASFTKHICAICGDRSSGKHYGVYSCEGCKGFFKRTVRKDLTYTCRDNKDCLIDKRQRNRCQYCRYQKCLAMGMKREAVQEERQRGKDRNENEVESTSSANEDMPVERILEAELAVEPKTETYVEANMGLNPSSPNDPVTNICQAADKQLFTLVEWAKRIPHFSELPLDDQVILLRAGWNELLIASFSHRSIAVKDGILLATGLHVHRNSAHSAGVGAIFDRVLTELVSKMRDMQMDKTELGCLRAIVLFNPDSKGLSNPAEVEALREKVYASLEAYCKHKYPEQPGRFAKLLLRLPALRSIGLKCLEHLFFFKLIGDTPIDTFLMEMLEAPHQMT
Test: LXR/LXRE co-transfection assay (LXRα)
Format: cell-based
Conditions: for EC50: CV-1 cells, LXRE luciferase reporter; for Emax: read-out: LXRα Eff (%)
Excerpt: To measure the ability of compounds to activate or inhibit the transcriptional activity of LXR in a cell based assay, the co-transfection assay was used. It has been shown that LXR functions as a heterodimer with RXR. For the co-transfection assay, expression plasmids for LXRα and LXRβ are introduced separately via transient transfection into mammalian cells along with a luciferase reporter plasmid that contains one copy of a DNA sequence that is bound by LXR-RXR heterodimers (LXRE; Willy, P. et. al. 1995). LXRs heterodimerize with the endogenous RXR. Treatment of transfected cells with an LXR agonist increases the transcriptional activity of LXR, which is measured by an increase in luciferase activity.
Co-transfection expression plasmids, comprising full-length LXRα (pCMX-h LXRα or LXRβ (pCMX-hLXRβ), reporter plasmid (LXREx1-Tk-Luciferase), and control (pCMX-Galactosidase expression vector) (Willey et al. Genes & Development 9 1033-1045 (1995)).
CV-1 cells were prepared 24 hours prior to the experiment by plating them into T-175 flasks or 500 cm^2 dishes in order to achieve 70-80% confluency on the day of the transfection. The number of cells to be transfected was determined by the number of plates to be screened. Each well of a 384 well plate requires ˜8000 cells. DNA Transfection Reagent was prepared by mixing the required plasmid DNAs with a cationic lipid transfection reagent FuGENE6 (Roche) by following the instructions provided with the reagents. Optimal DNA amounts were determined empirically per cell line and size of vessel to be transfected. For each T175 cm^2 flask a total of 20 μg of DNA, 60 μl of Fugene 6 and 1 ml of Optimem was mixed and added. Cells were then incubated at least 5 hours at 37° C. to prepare screening cells.
Assay plates were prepared by dispensing 5 μL, of compound per well of a 384 well plate to achieve final compound concentration of 10 μM and no more than 0.5% DMSO. Media was removed from the screening cells, the cells trypsinized, harvested cells by centrifugation, counted, and plated at a density of approximately 8000 cells per well in the 384 well assay plate prepared above in a volume of about 45 μL. Assay plates containing both compounds and screening cells (50 μL, in total volume) were incubated for 20 hours at 37° C.
After incubation with compounds, media was removed from the cells and luciferase assay reagent (30 μL/well) added. After ˜2 minutes at ambient temperature, the assay plates were read on a luminometer (PE Biosystems Northstar reader with on-board injectors, or equivalent).
The LXR/LXRE co-transfection assay can be used to establish the EC50/IC50 values for potency and percent activity or inhibition for efficacy. Efficacy defines the activity of a compound relative to a high control ((N-(3-((4-fluorophenyl)-(naphthalene-2-sulfonyl)amino)propyl)-2,2-dimethylpropionamide)) or a low control (DMSO/vehicle). The dose response curves are generated from a 10 point curve with concentrations differing by ½ LOG units.
The data from this assay is fitted to the following equation, from which the EC50 value may be solved: Y=Bottom+(Top−Bottom)/(1+10^((logEC50-X)*HillSlope)).
The EC50/IC50 is therefore defined as the concentration at which an agonist or antagonist elicits a response that is half way between the Top (maximum) and Bottom (baseline) values. The EC50/IC50 values represented are the averages of at least 2 and normally 3 independent experiments. The determination of the relative efficacy or % control for an agonist is by comparison to the maximum response achieved by ((N-(3-((4-fluorophenyl)-(naphthalene-2-sulfonyl)-amino)propyl)-2,2-dimethylpropionamide) that is measured individually in each dose response experiment.

[1] = efficacy relative to high control N-(3-((4-fluorophenyl)-(naphthalene-2-sulfonyl)amino)propyl)-2,2-dimethylpropionamide

Compound | EC50 | Emax [1] | Emax
CC(C)(O)c1cn(-c2ccc(-c3cc(F)c(CO)c(S(C)(=O)=O)c3)cc2)c(Cc2cc(F)ccc2Cl)n1 [Example 19, 2-[2-(2-Chloro-5-fluoro-benzyl)-1-(3′-fluoro-4′-hydroxymethyl-5′-methanesulfonyl-biphenyl-4-yl)-1H-imidazol-4-yl]-propan-2-ol] | > 1000 nM |  | 
CC(C)(O)c1cn(-c2ccc(-c3cc(F)c(CO)c(S(C)(=O)=O)c3)cc2F)c(Cc2ccccc2Cl)n1 [Example 20, 2-[2-(2-Chloro-benzyl)-1-(3,3′-difluoro-4′-hydroxymethyl-5′-methanesulfonyl-biphenyl-4-yl)-1H-imidazol-4-yl]-propan-2-ol] | 101 to 1000 nM | 15% | 
CC(c1c(Cl)cccc1Cl)c1nc(C(C)(C)O)cn1-c1ccc(-c2cc(F)c(CO)c(S(C)(=O)=O)c2)cc1F (stereo not drawn) [Example 21, 2-{2-[1-(2,6-dichlorophenyl)ethyl]-1-[3,3′-difluoro-4′-(hydroxymethyl)-5′-(methylsulfonyl)biphenyl-4-yl]-1H-imidazol-4-yl}propan-2-ol] | < 100 nM |  | 18%

Second part, led by results:

EC50 | Emax [1] | Compound | Emax
101 to 1000 nM | 13% | Cc1ccccc1Cc1nc(C(C)(C)O)cn1-c1ccc(-c2cc(F)c(CO)c(S(C)(=O)=O)c2)cc1 [Example 17, 2-(1-(3′-fluoro-4′-(hydroxymethyl)-5′-(methylsulfonyl)biphenyl-4-yl)-2-(2-methylbenzyl)-1H-imidazol-4-yl)propan-2-ol] | 
< 100 nM | 17% | CC(C)(O)c1cn(-c2ccc(-c3cc(F)c(CO)c(S(C)(=O)=O)c3)cc2)c(Cc2c(Cl)cccc2Cl)n1 [Example 18, 2-(2-(2,6-dichlorobenzyl)-1-(3′-fluoro-4′-(hydroxymethyl)-5′-(methylsulfonyl)biphenyl-4-yl)-1H-imidazol-4-yl)propan-2-ol] | 
